In patent US11555014B2, “High penetration prodrug compositions of prostaglandins and related compounds” (Techfields Pharma Co., Ltd., priority 2006, dated 2023):

Experiments:
[1] = system: cats with ocular hypertension; assay: Intraocular pressure (IOP) reduction in cats with ocular hypertension produced by laser trabeculoplasty; assay type: in vivo, cat; details: for Intraocular pressure, 24 hours after administration / Intraocular pressure, 36 hours after administration / Intraocular pressure, 48 hours after administration / Intraocular pressure, 60 hours after administration / Intraocular pressure, 72 hours after administration: dose 0.001%, one drop topical every 12 hours, 6 doses; for Intraocular pressure, baseline: prior to treatment, group dosed 0.001%
Protocol: The ability of certain compounds of the present invention to reduce intraocular pressure (IOP) was evaluated in cats with ocular hypertension produced by previously done laser trabeculoplastry. IOP was determined with a pneumatonometer after light corneal anesthesia with dilute proparacaine. Baseline IOP was determined prior to treatment with the test compound aqueous solution. 6 divided doses were administered over a period of 3 days (once every 12 hours). IOP was determined 24 hours after the initial dose and then once every 12 hours. The therapeutically efficient amount is typically between 0.001 and 0.01% in pH 7.2 phosphate buffer (0.1 M). The treatment was carried out in that one drop (about 30 micro liter) of the composition. The results of N,N-diethylaminoethyl 11,15-dihydroxy-9-oxoprost-13-en-1-oate.AcOH (A), N,N-diethylaminoethyl 11,15-dihydroxyl-9-oxoprosta-5,13-dien-1-oate.AcOH (B), N,N-diethylaminoethyl 9,11,15-trihydroxyprosta-5,13-dien-1-oate.AcOH(C), N,N-diethylaminoethyl 9,11-dihydroxy-15-keto-20-ethylprost-5,13-dien-1-oate.AcOH (9,11-dihydroxy-15-keto-20-ethylprostaglandin F2α N,N-diethylaminoethyl ester) (D), N,N-diethylaminoethyl (Z)-7-{(1R,2R,3R,5S)-3,5-dihydroxy-2-[(1E,3R)-3-hydroxy-4-[(α,α,α-trifluoro-m-tolyl)oxy]-1-butenyl]cyclopentyl}-5-heptenoate.AcOH (E), N,N-diethylaminoethyl (Z)-7{(1R,2R,3R,5S)-3,5-dihydroxy-2-[(3R)-3-hydroxy-5-phenylpentyl]cyclopentyl}-5-heptenoate.AcOH (F), and N,N-diethylaminoethyl (Z)-7-{(1R,2R,3R,5S)-3,5-Dihydroxy-2-[(1E,3S)-3-hydroxy-5-phenyl-1-pentenyl]cyclopentyl}-heptenoate.AcOH (G) are shown in Table 2.

[2] = system: rabbit eye; assay: Conjunctival hyperemia in the rabbit eye after topical application; assay type: in vivo; details: dose 0.001% topical, first 2 hours, scale 0 (no hyperemia) to 4 (marked hyperemia with conjunctive chemosis)
Protocol: Conjunctival hyperemia in the rabbit eye of naturally occurring and modified prostaglandins and their novel prodrugs was evaluated during the first 2 hours after topical application of the respective test drug. The conjunctival hyperemia was graded on a scale from 0 to 4, 0 indicating complete absence of any hyperemia, and 4 indicating marked hyperemia with conjunctive chemosis.

[3] = system: cat eye; assay: Irritative effect or ocular discomfort in the cat eye after topical application; assay type: in vivo; details: dose 0.001% topical, first 2 hours, scale 0 (no discomfort) to 4 (maximal irritation, complete lid closure)
Protocol: Irritative effect or ocular discomfort in the cat eye of naturally occurring and modified prostaglandins and their novel prodrugs were evaluated during the first hours after the topical application of the respective test drug. The ocular discomfort was graded on a scale from 0 to 4, 0 indicating complete absence of any signs of discomfort, and 4 indicating maximal irritation as obvious from complete lid closure.

[4] = Solubility in water; assay type: physicochemical
Protocol: 37.7 g (0.1 mol) of sodium 11,15-dihydroxy-9-oxoprost-13-en-1-oate was dissolved in 100 ml of acetonitrile. 26.1 g (0.1 mol) of 2-Bromo-N,N-diethylethylamine.HBr and 8.6 g of sodium bicarbonate were added into the reaction mixture. The mixture was stirred for overnight at RT. The solvents were evaporated off. 250 ml of ethyl acetate was added into the reaction mixture and the mixture was washed with water (3×100 ml). The organic solution was dried over anhydrous sodium sulfate. Sodium sulfate was removed by filtration. 6 g of acetic acid was added into the reaction mixture with stirring. Hexane (200 ml) was added. The solid product was collected by filtration. After drying, it yielded 42 g of the desired product (81.8%). Hygroscopic product; Solubility in water: 100 mg/ml; Elementary analysis: C28H51NO7; MW: 513.37. Calculated % C, 65.47; H, 10.01; N, 2.73; O, 21.80. Found % C, 65.42; H, 10.03; N, 2.70; O, 21.85.
43.7 g (0.1 mol) of 11,15-diacetoxy-9-oxoprosta-5,13-dien-1-oic acid was dissolved in 300 ml of chloroform. 20.6 g of N,N′-Dicyclohexylcarbodiimide was added into the reaction mixture. 11.7 g of N,N-diethylaminoethylamine was added into the reaction mixture. The mixture was stirred for 3 hours at RT. The solid was removed by filtration. The chloroform solution was washed with 5% NaHCO3 (2×100 ml) and water (3×100 ml). The organic solution was dried over anhydrous sodium sulfate. Sodium sulfate was removed by filtration. 6 g of acetic acid was added into the reaction mixture with stirring. Hexane (200 ml) was added. The solid product was collected by filtration. After drying, it yielded 45 g of the desired product (85.8%). Hygroscopic product; Solubility in water: 100 mg/ml; Elementary analysis: C34H59NO9S; MW: 657.90. Calculated % C, 62.07; H, 9.04; N, 2.13; O, 21.89; S, 4.87. Found % C, 62.02; H, 9.06; N, 2.11; O, 21.95; S, 4.86.
49.9 g (0.1 mol) of 9,11,15-triacetoxyprost-13-en-1-oic acid was dissolved in 300 ml of chloroform. 20.6 g of N,N′-Dicyclohexylcarbodiimide was added into the reaction mixture. 13.1 g of dimethylaminoethyl mercaptan was added into the reaction mixture. The mixture was stirred for 3 hours at RT. The solid was removed by filtration. The chloroform solution was washed with 5% NaHCO3 (2×100 ml) and water (3×100 ml). The organic solution was dried over anhydrous sodium sulfate. Sodium sulfate was removed by filtration. 6 g of acetic acid was added into the reaction mixture with stirring. Hexane (200 ml) was added. The solid product was collected by filtration. After drying, it yielded 45 g of the desired product (85.8%). Hygroscopic product; Solubility in water: 100 mg/ml; Elementary analysis: C32H53NO9; MW: […] Calculated % C, 64.51; H, 8.97; N, 2.35; O, 24.17. Found % C, 64.47; H, 8.99; N, 2.34; O, 24.20.
37.7 g (0.1 mol) of sodium 9,11,15-trihydroxyprosta-5,13-dien-1-oate was dissolved in 100 ml of acetonitrile. 39 g (0.15 mol) of 2-Bromo-N,N-diethylethylamine.HBr in ethyl acetate was added into the reaction mixture. The mixture was stirred for 3 h at RT. Then 8 g of sodium bicarbonate was added into the reaction mixture. The mixture is stirred for another 2 h at RT. The solvents were evaporated off. 250 ml of ethyl acetate was added into the reaction mixture and the mixture was washed with water (3×100 ml). The organic solution was dried over anhydrous sodium sulfate. Sodium sulfate was removed by filtration. 6 g of acetic acid was added into the reaction mixture with stirring. […] Calculated % C, 65.47; H, 10.01; N, 2.73; O, 21.80. […]

[5] = In vitro penetration rate across isolated human skin in modified Franz cells; details: 10% solution in pH 7.4 phosphate buffer (0.2 M), n=5
Protocol: The penetration rates of HPPs and their parent drugs through human skin were measured in vitro by modified Franz cells. The Franz cells have two chambers, the top sample chamber and the bottom receiving chamber. The human skin tissue (360-400 μm thick) that separates the top and the receiving chambers was isolated from the anterior or posterior thigh areas.
The compound tested (2 mL, 20% in 0.2 M phosphate buffer, pH. 7.4) were added to the sample chamber of a Franz cell. The receiving chamber contains 10 ml of 2% bovine serum albumin in saline which was stirred at 600 rpm. The cumulative amounts of the tested compounds penetrating the skin versus time were determined by high-performance liquid chromatography (HPLC) method.

[6] = system: rats; assay: Sexual behaviour (solicitation, copulation) of rats after application to genital area; assay type: in vivo, rat
Protocol: The HPP of the invention can diffuse through human skin in very high rate (˜1 mg/h/cm^2) and can provide almost side-effects-free methods of treating erectile dysfunction or enhancing female sexual arousal. About 0.01 ml of 0.0005% [˜0.05 μg (microgram)] N,N-diethylaminoethyl 11,15-dihydroxy-9-oxoprost-13-en-1-oate.AcOH in pH 7.0 phosphate buffer (0.1 M) was applied to genital area of male rats (30 rats) once per day for 5 days.
When same amount of N,N-diethylaminoethyl 11,15-dihydroxy-9-oxoprost-13-en-1-oate.AcOH in pH 7.0 phosphate buffer (0.1 M) were applied to genital area of both male rats (30 rats) and female rats (30 rates) once per day for 5 days.

[7] = Milosovich et al., J. Pharm. Sci., 82, 227 (1993); cited from earlier work
[8] = about 0.01 ml of 0.0005% (~0.05 μg) applied to genital area of male rats once per day for 5 days
[9] = same amount applied to genital area of both male and female rats once per day for 5 days

Molecule	Intraocular pressure, 24 hours after administration [1]	Intraocular pressure, 36 hours after administration [1]	Intraocular pressure, 48 hours after administration [1]	Intraocular pressure, 60 hours after administration [1]	Intraocular pressure, 72 hours after administration [1]	Intraocular pressure, baseline [1]	Degree of irritative effect (conjunctival hyperemia) [2]	Degree of irritative effect [3]	Solubility in water [4]	In vitro penetration rate (apparent flux), prodrug compounds [5]	Increase in copulation compared to rats not given the drug [6, 8]	Increase in solicitation compared to rats not given the drug [6, 8]	Discomfort of treated rats ([6]; applied to genital area of rats once per day for 5 days)	Increase in copulation compared to rats not given the drug [6, 9]	Increase in solicitation compared to rats not given the drug [6, 9]	Diffusion through human skin, times faster than the parent drug (TS) [7]
CC(=O)O.CCCCCC(O)C=C[C@H]1C(O)CC(O)[C@@H]1CC=CCCCC(=O)OCCN(CC)CC (some centres unmarked) [N,N-diethylaminoethyl 9,11,15-trihydroxyprosta-5,13-dien-1-oate.AcOH]	15.5 ± 0.5	15.6 ± 0.6	15.7 ± 0.5	15.6 ± 0.7	15.5 ± 0.6	22.5 ± 0.7	1	1	100 mg/mL	0.94 mg/cm^2/h	–	–	–	–	–	–
CC(=O)O.CCCCCC(O)C=CC1C(O)CC(=O)C1CCCCCCC(=O)OCCN(CC)CC (centres unmarked) [N,N-diethylaminoethyl 11,15-dihydroxy-9-oxoprost-13-en-1-oate.AcOH]	–	–	–	–	–	–	–	–	100 mg/mL	1.01 mg/cm^2/h	4 fold	6 fold	did not show any discomfort	6 fold	6 fold	–
CC(=O)O.CCN(CC)CCOC(=O)CCC/C=C\C[C@@H]1[C@@H](/C=C/[C@@H](O)CCc2ccccc2)[C@H](O)C[C@@H]1O [N,N-diethylaminoethyl (Z)-7-{(1R,2R,3R,5S)-3,5-Dihydroxy-2-[(1E,3S)-3-hydroxy-5-phenyl-1-pentenyl]cyclopentyl}-heptenoate.AcOH]	15.2 ± 0.6	15.4 ± 0.5	15.5 ± 0.4	15.4 ± 0.6	15.4 ± 0.5	22.4 ± 0.6	1	1	–	0.85 mg/cm^2/h	–	–	–	–	–	–
CC(=O)O.CCN(CC)CCOC(=O)CCC/C=C\C[C@@H]1[C@@H](/C=C/[C@@H](O)COc2cccc(C(F)(F)F)c2)[C@H](O)C[C@@H]1O [N,N-diethylaminoethyl (Z)-7-{(1R,2R,3R,5S)-3,5-dihydroxy-2-[(1E,3R)-3-hydroxy-4-[(α,α,α-trifluoro-m-tolyl)oxy]-1-butenyl]cyclopentyl}-5-heptenoate.AcOH]	15.1 ± 0.4	15.0 ± 0.5	15.0 ± 0.4	14.9 ± 0.3	15.1 ± 0.4	22.1 ± 0.4	1	1	–	0.91 mg/cm^2/h	–	–	–	–	–	–
CC(=O)O.CCN(CC)CCOC(=O)CCC/C=C\C[C@@H]1[C@@H](CC[C@@H](O)CCc2ccccc2)[C@H](O)C[C@@H]1O [N,N-diethylaminoethyl (Z)-7{(1R,2R,3R,5S)-3,5-dihydroxy-2-[(3R)-3-hydroxy-5-phenylpentyl]cyclopentyl}-5-heptenoate.AcOH]	15.6 ± 0.5	15.7 ± 0.4	15.6 ± 0.5	15.5 ± 0.4	15.6 ± 0.6	22.5 ± 0.5	1	1	–	0.95 mg/cm^2/h	–	–	–	–	–	–
CC(=O)O.CCCCCC(C=C[C@H]1C(OC(C)=O)CC(OC(C)=O)[C@@H]1CCCCCCC(=O)SCCN(C)C)OC(C)=O (some centres unmarked) [S—(N,N-dimethylaminoethyl) 9,11,15-triacetoxythioprost-13-en-1-oate.AcOH]	–	–	–	–	–	–	–	–	100 mg/mL	–	–	–	–	–	–	–
CN(C)CCCC(=O)O[C@H]1CC[C@H]2[C@@H]3CCC4=CC(=O)CC[C@]4(C)[C@H]3CC[C@]12C.Cl [TSBH, testosteronyl-4-dimethylaminobutyrate.HCl]	–	–	–	–	–	–	–	–	–	–	–	–	–	–	–	about 60 times
N,N-diethylaminoethyl 11,15-diacetoxy-9-oxoprosta-5,13-dien-1-oamide.AcOH	–	–	–	–	–	–	–	–	100 mg/mL	–	–	–	–	–	–	–
